The conditions of this data set: for mass density: 100 kPa, Vibrating tube method; for mass density / electrical conductivity: Liquid; for electrical conductivity: 101.33 kPa, Direct current cell with electrodes; for Glass transition temperature: DSC.

± gives the expanded uncertainty stated by the source.

By mass density is commonly meant the mass of a sample divided by its volume. Consider `CCCCCC[n+]1ccn(C)c1.O=S(=O)([N-]S(=O)(=O)C(F)(F)F)C(F)(F)F`, for which the mass density (283.15 K) is 1386 ± 5 kg/m3; the mass density (288.15 K) is on record as 1381.41 ± 5 kg/m3; the mass density (293.15 K) is reported as 1376.82 ± 5 kg/m3; the mass density (298.15 K) was determined as 1371.8 ± 5 kg/m3; the mass density (303.15 K) was 1367.65 ± 5 kg/m3; the mass density (308.15 K) came out at 1363.1 ± 5 kg/m3. In addition, the mass density was determined as 1357.5 ± 5 kg/m3 (313.15 K), 1352.61 ± 5 kg/m3 (318.15 K) and 1349.44 ± 5 kg/m3 (323.15 K).
Turning to `C=CCCn1cc[n+](CCCC)c1.[Br-]` [1-(3-butenyl)-3-butylimidazolium bromide], the Glass transition temperature was -49.00 ± 1.2 °C. Where the note is “283.15 K”, the mass density is given as 1229.25 ± 6.8 kg/m3. Also, where the note is “288.15 K”, the mass density came out at 1225.9 ± 6.7 kg/m3. Also, where the note is “293.15 K”, the mass density was determined as 1222.43 ± 6.7 kg/m3 and the electrical conductivity stood at 0.00255 ± 0.00018 S/m. Where the note is “298.15 K”, the mass density is 1218.74 ± 6.7 kg/m3 and the electrical conductivity was determined as 0.00445 ± 0.00031 S/m. Also, where the note is “303.15 K”, the mass density came to 1214.96 ± 6.7 kg/m3 and the electrical conductivity came out at 0.00733 ± 0.00051 S/m. Also, where the note is “308.15 K”, the mass density stood at 1211.48 ± 6.7 kg/m3 and the electrical conductivity worked out at 0.0114 ± 0.0008 S/m. Also, for the setting “313.15 K”, the mass density amounted to 1207.96 ± 6.6 kg/m3 and the electrical conductivity amounted to 0.0175 ± 0.0012 S/m. In addition, where the note is “318.15 K”, the mass density is given as 1204.4 ± 6.6 kg/m3 and the electrical conductivity was 0.0256 ± 0.0018 S/m. In addition, under “323.15 K”, the mass density was 1200.81 ± 6.6 kg/m3 and the electrical conductivity is 0.0366 ± 0.0026 S/m.
Regarding `C=CCCn1cc[n+](CC)c1.[Br-]` [1-(3-butenyl)-3-ethylimidazolium bromide], the Glass transition temperature was -63.48 ± 1.2 °C. Where the note is “283.15 K”, the mass density was 1305.11 ± 5.7 kg/m3. For the setting “288.15 K”, the mass density came out at 1301.34 ± 5.7 kg/m3. Besides, for the setting “293.15 K”, the mass density is recorded as 1297.64 ± 5.7 kg/m3 and the electrical conductivity stood at 0.014 ± 0.00098 S/m. Also, for the setting “298.15 K”, the mass density was 1294.11 ± 5.6 kg/m3 and the electrical conductivity was determined as 0.0226 ± 0.0016 S/m. Moreover, where the note is “303.15 K”, the mass density amounted to 1290.54 ± 5.6 kg/m3 and the electrical conductivity stood at 0.0353 ± 0.0025 S/m. Further, where the note is “308.15 K”, the mass density was found to be 1286.92 ± 5.6 kg/m3 and the electrical conductivity is 0.0524 ± 0.0037 S/m. In addition, where the note is “313.15 K”, the mass density amounted to 1283.26 ± 5.6 kg/m3 and the electrical conductivity worked out at 0.0747 ± 0.0052 S/m. For the setting “318.15 K”, the mass density came to 1279.57 ± 5.6 kg/m3 and the electrical conductivity turned out to be 0.12 ± 0.0084 S/m. Also, under “323.15 K”, the mass density is on record as 1275.88 ± 5.6 kg/m3 and the electrical conductivity worked out at 0.162 ± 0.011 S/m. In addition, the Normal melting temperature (Crystal, DTA) worked out at 70.68 ± 1.1 °C.
Regarding `C=CCCn1cc[n+](C)c1.[Br-]` [1-(3-butenyl)-3-methylimidazolium bromide], the Glass transition temperature is -49.60 ± 1.2 °C. Under “283.15 K”, the mass density is 1354.24 ± 15 kg/m3. Further, the mass density (288.15 K) was determined as 1350.42 ± 15 kg/m3. Besides, for the setting “293.15 K”, the mass density came to 1346.67 ± 14 kg/m3 and the electrical conductivity came out at 0.0126 ± 0.00089 S/m. In addition, for the setting “298.15 K”, the mass density was 1343.07 ± 14 kg/m3 and the electrical conductivity came out at 0.0214 ± 0.0015 S/m. For the same molecule, where the note is “303.15 K”, the mass density turned out to be 1339.41 ± 14 kg/m3 and the electrical conductivity came out at 0.0343 ± 0.0024 S/m. Under “308.15 K”, the mass density is listed as 1335.7 ± 14 kg/m3 and the electrical conductivity came to 0.0522 ± 0.0037 S/m. Where the note is “313.15 K”, the mass density amounted to 1331.9 ± 14 kg/m3 and the electrical conductivity was 0.0772 ± 0.0054 S/m. In addition, where the note is “318.15 K”, the mass density came to 1328.14 ± 14 kg/m3 and the electrical conductivity was found to be 0.116 ± 0.0081 S/m. For the same molecule, under “323.15 K”, the mass density was 1324.34 ± 14 kg/m3 and the electrical conductivity is 0.162 ± 0.011 S/m.
Take `O` [water]: the mass density (283.15 K) stood at 999.7 ± 0.05 kg/m3; the mass density (288.15 K) came out at 999.05 ± 0.05 kg/m3; the mass density (313.15 K) amounted to 992.31 ± 0.06 kg/m3; the mass density (318.15 K) is 990.42 ± 0.06 kg/m3; the mass density (323.15 K) worked out at 988.3 ± 0.06 kg/m3.

The values above are taken from the NIST ThermoML archive (doi:10.1016/j.jct.2019.07.013).
